Data from US10183032B2, “Methods for treating bacterial infection” (Ball State Innovation Corporation, priority 2012, dated 2019).
Read-outs that look alike come from different tables or passages of the source.

Columns and labels:
Assay type in all cases: cell-based
[1] = system: Human umbilical vein endothelial cells; experiment: Cytotoxicity by propidium iodide exclusion, HUVEC
Streptococcus pyogenes = Streptococcus pyogenes invasion assay in HUVEC, CFU recovery; conditions: for inhibition at 10 µM: Streptococcus pyogenes, HUVEC
Protocol: FIG. 12 is a graph illustrating that ML 141 inhibition of cell invasion by S. pyogenes is reversible. HUVEC were pretreated with ML 141 (10 μM) or with dimethyl sulfoxide (DMSO) as the vehicle control (1 h). Following pretreatment, ML 141-containing media was removed from the washout samples and replaced with DMSO-containing media for 60 min prior to incubation with Streptococcus pyogenes at a multiplicity of infection of 30 (2 h). Extracellular bacteria were removed by gentamicin, an antimicrobial with limited mammalian membrane permeability. Intracellular bacteria were released from HUVEC into the medium by incubation in cold water (5 min). Serial dilutions were incubated (16 h) on Todd Hewitt broth/blood agar plates and colonies enumerated to determine colony forming units (CFU)/ml (*P<0.05 by one-way ANOVA followed by Student-Newman-Keuls post-hoc analysis; n=4/treatment).
Human umbilical vein endothelial cells (HUVEC, EMD Millipore, Billerica, Mass., SCCE001) were cultured in EndoGRO-LS complete media (EMD Millipore, SCME001) and maintained in 75 cm^2 vented cap flasks (Thermo-Fisher Scientific, Pittsburgh, Pa., 10-126-37) at 37° C./5% CO2. Streptococcus pyogenes (90-226, M1+) was cultured in Todd Hewitt broth (THB, Thermo-Fisher Scientific, DF0492-17-6) and grown at 37° C. with no shaking.
Two days prior to infection, S. pyogenes were cultured in 5 ml THB 18-24 h from a single colony grown on THB/blood (Cleveland Scientific, Bath, Ohio, SBCIT-100) agar (Moorhead & Company, Rocklin, Calif., gelidium), and 10 μl subcultured 18 h prior to infection. HUVEC were seeded in 24-well plates (Sigma-Aldrich, St. Louis, Mo., CLS3524) that had been coated with Attachment Factor (Life Technologies, Carlsbad, Calif., S006100) for 30 min at 37° C./5% CO2. HUVEC were plated at a density of 1.5×10^5 cells/well. For infection, S. pyogenes were harvested by centrifugation, 37° C./3 min/10,000 RPM, washed, and resuspended in fresh 0.85% saline (NaCl, Thermo-Fisher Scientific, S-271-500). Bacteria were diluted to 4.8×10^8 colony forming units (CFU)/ml and incubated at 37° C./5% CO2 with HUVEC at multiplicity of infection and for duration indicated in each figure or table. CFU of 90-226 S. pyogenes had been determined from a growth curve, fitting an OD600 of 0.5 to 4.8×10^8 CFU/ml. After infection, each well was washed three times with sterile 1× phosphate buffered saline (PBS, Life Technologies, 20012043) to remove unattached S. pyogenes. HUVEC were then incubated at 37° C., 5% CO2 for 45 min in 10% fetal bovine serum (FBS, Atlanta Biologicals, Flowery Branch, Ga., S111S0)/PBS containing 500 μg/ml gentamicin (Sigma-Aldrich, G1272). Following the incubation with gentamicin to remove extracellular bacteria, HUVEC were washed three times with PBS. Sterile distilled ice-cold water (Life Technologies, 15230-162) was added to each well for 5 min at room temperature (RT) to permeabilize the host cells. Serial dilutions of this bacteria-containing water were performed in saline, plated on THB/blood agar, and incubated for 18-20 h at 37° C. The following day, colonies were counted to determine CFU/ml recovered from invasion.

host cell = experiment: Host cell cytotoxicity in vitro (preliminary data)
Staphylococcus aureus = experiment: S. aureus invasion in all cell types examined; conditions: HUVEC, HEK, U-87 MG, RAW and A549
Protocol: Two days prior to the assay, TSB is inoculated with S. aureus (American Type Culture Collection #29213) and incubated overnight (225 rpm, 37° C.). Bacteria are subcultured the next day into fresh TSB. On the day of the assay, bacteria are pelleted (10000×g, 37° C., 3 min), are washed in saline, are pelleted as above, are resuspended in saline, then fluorescently labeled by incubation with rabbit anti-mouse IgG Alexa Fluor 488 (final concentration 8 μg/ml, RT, 20 min). Protein A, a S. aureus cell surface protein, avidly binds IgG thereby labeling the bacteria. Labeled bacteria are washed twice as above and are resuspended to 3×10^8 CFU/ml in saline. Host cells are incubated with the bacteria for 1 hour (1.2×10^8 CFU/ml for same-day recovery, 5×10^6 for recovery after 48 hours, 1.4×10^7 CFU/ml; 5% CO2, 37° C.). […] To detect the level of infection using flow cytometry, cells that have been infected with fluorescently-labeled bacteria are washed extensively with PBS, lifted from 96-well plate by incubation with trypsin, washed extensively in FACS buffer (2% BSA/0.1% sodium azide/PBS), fixed (FACS buffer containing 0.74% formaldehyde), and are counted using an Accuri flow cytometer (BD, Franklin Lakes, N.J.). They are also lifted from culture dishes using cell scrapers, pelleted, fixed (1% BSA/0.74% formaldehyde/PBS), and are counted using an Accuri flow cytometer. […]

COc1ccc(C2CC(c3ccccc3)=NN2c2ccc(S(N)(=O)=O)cc2)cc1 (centres unmarked) [ML 141, 4-[3-(4-methoxyphenyl)-5-phenyl-3,4-dihydropyrazol-2-yl]benzenesulfonamide] was tested, and the “Cytotoxicity (in words)” value ([1]; 10 μM, 18-20 h, Tables 4 and 5) was “not detected”, the “Mean fluorescence intensity (×10^4 ± SEM), Compound (10 μM)” value ([1]; HUVEC pretreated 18-20 h) was 2.1 ± 0.3 ×10^4 and the “reversibility of inhibition of S. pyogenes invasion” value (Streptococcus pyogenes; ML 141 10 μM 1 h, washout 60 min, MOI 30, 2 h) was “reversible”. The “% Inhibition (± SEM)” value (Streptococcus pyogenes; ML 141 10 μM added 1 hour post-infection, 2 h, MOI 0.25) was “No difference”, the “% Inhibition (± SEM)” value (Streptococcus pyogenes; ML 141 10 μM added at time of infection, 2 h, MOI 30) was “No difference” and the inhibition at 10 µM (Streptococcus pyogenes; 2 h, read-out: % Inhibition (± SEM), ML 141 10 μM added at time of infection, 2 h, MOI 0.25 (first line)) was 81 ± 7%. The inhibition at 10 µM (Streptococcus pyogenes; 2 h, read-out: % Inhibition (± SEM), ML 141 10 μM added at time of infection, 2 h, MOI 0.25 (second line)) was 62 ± 10%, the inhibition at 10 µM (Streptococcus pyogenes; read-out: % Inhibition (± SEM), ML 141 10 μM added 18-20 hours pre-infection, duration of infection 2 h, MOI 30) was 96 ± 4% and the inhibition at 10 µM (Streptococcus pyogenes; read-out: % Inhibition (± SEM), ML 141 10 μM added 1 hour post-infection, 2 h, MOI 0.0025) was 92 ± 6%. For the same compound, the “concentration at which host cell cytotoxicity was undetectable” value (host cell) was “below 30 μM” and the “inhibition of invasion in all cell types examined” value (Staphylococcus aureus) was “inhibited invasion”.
